Values quoted from earlier work as cited in patent US9415078B2 (priority 2011, dated 2016).
Several values for one entry are separate records, joined by “and”; a condition that tells them apart may be missing. Equal values may be shown once. Read-outs that look alike come from different tables or passages of the source.

Test system: non squamous and squamous carcinoma of lung
Conditions: pemetrexed-based therapy, two comparisons

Nc1nc2[nH]cc(CCc3ccc(C(=O)N[C@@H](CCC(=O)O)C(=O)O)cc3)c2c(=O)[nH]1 [pemetrexed]
HR for survival versus the comparators (Non squamous patients): 0.78 and 0.84 | HR for survival versus the comparators (squamous patients): 1.56 and 1.23
